# Results taken from patent US20090211893A1, “Photo-Activatable Amino Acids” (priority 2005, published 2009).
# Assays:
# caveolin-1 = assay: Photo-crosslinking of transfected caveolin-1 in COS7 cells; format: cell-based, human; details: irradiated samples, COS7 cells in LM-4
# Description: FIG. 3: Photo-crosslinking induced by photo-amino acids. COS7 cells (panels a,b) or HeLa cells (panel c) were grown in LM-4 (panel a) or LM-2 (panels b,c) in the absence or presence of L-photo-Leu (pL), L-photo-Met (pM) or DL-photo-Ile (pl) or mixtures of them (pLM or PLMI) followed by UV irradiation (+) or no irradiation (−). cross-linked products formed after UV-irradiation were detected by SDS-PAGE followed by western blotting using (a) anti-caveolin 1 to detect overexpressed caveolin 1, (b) anti-stomatin to detect endogenous stomatin or (c) anti-EEA1 to detect endogenous EEA1. In panel b, lanes 8 and 9 show cross-linking with two different concentrations of the chemical cross-linker DSS for comparison of cross-linking efficiency. In panel c, photocrosslinking of endogenous EEA1 by photo-Leu and photo-Met is compared to chemical cross-linking using DSS or para-formaldehyde (PFA) as indicated. Note that chemical cross-linking leads to protein aggregates that are not resolvable by SDS-PAGE while photocrosslinking identifies more than six discrete cross-linked bands.
# COS7 (monkey kidney) cells were grown in DMEM high glucose (Gibco no. 11995; with L-glutamine and Na-pyruvate)+10% FCS. Typically, 3 cm2 of cells are needed for a cross-linking experiment with detection by western blotting. At about 70%, medium was replaced by LM-4 (DMEM lacking Met, Leu, Ile and Val and phenol red, supplemented with 5% dialyzed FCS) or by LM-2 (LM-4+1 mM of each Ile and Val). Photo-amino acids were added to a final concentration of 4 mM photo-Leu and photo-Ile, 1.7 mM photo-Met and cells were cultivated for further 22 h followed by washing with PBS and UV-irradiation using a 200 W high pressure mercury lamp (Oriel Photomax) with a glass filter to remove wavelengths shorter 310 nm. The samples were placed at a distance of 38 cm to the light source, corresponding to a illuminated area of 105 mm diameter. […] We used an irradiation time 1-3 min for experiments with living cells. […] Lysis of cells, SDS-PAGE and western blotting were done as described^33. […]
# COS7 cells [1] = assay: Protein biosynthesis by incorporation of [3H]Phe; format: cell-based, monkey; details: for Protein synthesis: LM-2 medium supplement, value in full DMEM medium set to 100, average ± SD of triplicate; for effect on protein biosynthesis: addition to LM-2 medium
# From the text: (§1) Unnatural amino acids frequently are toxic to cells. To find out if this is the case for photo-amino acids of the invention, we monitored in COS7 cells protein biosynthesis by incorporation of [^3H]Phe and viability by trypan blue exclusion of cells grown in the presence or absence of the photo-amino acids photo-Leu, photo-Met and photo-Ile. Due to the lack of two essential amino acids in the growth medium, protein biosynthesis is reduced to about 65% of that in a full growth medium. […] Although cells grew slightly slower than in full growth medium, viability (Table 2) and cell morphology (not shown) were unaffected.
# [2] = system: E. coli beta-galactosidase; assay: Activity of beta-galactosidase expressed in cells grown with photo-amino acids; format: cell-based, monkey; details: COS 7 cells, 20 h in LM-2 with photo-amino acid; percent ± SD (n = 6) of value in DMEM + FCS
# From the text: We furthermore tested, whether proteins produced by cells grown with photo-amino acids are functional or not. For that, we transfected cells with GFP-fusion constructs of the small GTPase Rab5 and of mutated Rab5 that is constitutively activated (GFP-Rab5QL) or dominant negative (GFP-Rab5SN)^19 and monitored the GFP fluorescence by confocal microscopy. Four hours after transfection, when cells were switched to media containing photo-amino acids, no GFP signal was detectable (see FIG. 7). […] Both, staining intensity and localization were unaffected by the presence of either of the photo-amino acids. Taking into account a frequency of substitution of photo-Met for Met of 35% (see below) and the amounts of Met in Rab5 and GFP, more than 80% of the fusion protein will have photo-Met in both the Rab5- and the GFP-part of the fusion, more than 99% in at least one of the two parts. […] To corroborate this with a quantitative assay, we measured the activity of beta-galactosidase that was expressed in the absence or presence of photo-amino acids (see Table 4). Activity in LM-2 labeling medium was 79% of that in full DMEM. The addition of either of the three photo-amino acids or of a mixture of photo-Met and photo-Leu had no significant additional effect. E. coli beta-galactosidase contains 23 methionines of which on average 8 would be replaced by photo-Met; less than 0.01% of the protein are expected to have no substitution by photo-Met. We conclude that photo-amino acids are non-toxic to cultivated mammalian cells and can, at least partially, functionally replace branched chain amino acids and methionine.
# COS7 cells [3] = assay: Cell viability by trypan blue exclusion; format: cell-based, monkey; details: LM-2 medium supplement; percent ± SD of viable cells (n = 6)
# From the text: as §1
# COS7 cells [4] = assay: Cell viability after UV irradiation by trypan blue exclusion; format: cell-based, monkey
# HA-tagged human PGRMC1 = assay: Competition of PGRMC1 cross-linking by natural amino acids; format: cell-based; details: 3 mM competing amino acid, COS7 cells in LM-4
# Description: FIG. 4: Specificity of incorporation and cross-linking by photo-Met and photo-Leu. COS7 cells were transfected with HA-tagged human PGRMC1 and were grown in LM-4 in the absence or presence of photo-Leu (A) or photo-Met (B) with addition of 3 mM of the indicated competing amino acid. cross-linked products formed after UV-irradiation were detected by SDS-PAGE followed by western blotting against the HA-epitope. (C) COS7 cells were grown in the presence of 1.7 mM [1-^14C]photo-Met, a constant trace amount of [^3H]Phe and 3 mM of competing unlabeled amino acids as indicated in the legend. Protein was precipitated and protein-bound radioactivity was determined by scintillation counting. […] The control value obtained in the absence of competing amino acid (con) is set to 100. Data are average±SD of triplicate determinations.
# If so, addition of the complementary naturally occurring amino acid should strongly reduce incorporation and inhibit photo-crosslinking. […] To find out if competition for cross-linking reflects competition for incorporation, we competed incorporation of [1-^14C]photo-Met with the same set of amino acids (FIG. 4c). […] It should be noted that Met, Val, Leu and Ile all are transported into cells by the L-type transport system^25, which presumably also transports the three photo-amino acids. The strong difference in competition by Met and Leu versus Val and Ile excludes competition at the level of uptake.
# COS7 cells [5] = assay: Cell viability after UV irradiation by trypan blue exclusion; format: cell-based, monkey; remark: listed apart in the source
# Description: COS7 (monkey kidney) cells were grown in DMEM high glucose (Gibco no. 11995; with L-glutamine and Na-pyruvate)+10% FCS. Typically, 3 cm2 of cells are needed for a cross-linking experiment with detection by western blotting. At about 70%, medium was replaced by LM-4 (DMEM lacking Met, Leu, Ile and Val and phenol red, supplemented with 5% dialyzed FCS) or by LM-2 (LM-4+1 mM of each Ile and Val). Photo-amino acids were added to a final concentration of 4 mM photo-Leu and photo-Ile, 1.7 mM photo-Met and cells were cultivated for further 22 h followed by washing with PBS and UV-irradiation using a 200 W high pressure mercury lamp (Oriel Photomax) with a glass filter to remove wavelengths shorter 310 nm. The samples were placed at a distance of 38 cm to the light source, corresponding to a illuminated area of 105 mm diameter. […] We used an irradiation time 1-3 min for experiments with living cells. […] Lysis of cells, SDS-PAGE and western blotting were done as described^33. For immunoprecipitation, cells were lysed in 20 mM Hepes/NaOH pH 7.4, 100 mM NaCl, 5 mM EDTA, 1% Triton X 100, 0.5% sodium deoxycholate, the lysate was cleared with protein-A beads and incubated with beads that were preincubated with polyclonal anti-myc or anti-HA antibody. Beads were collected and washed three times each with 20 mM Hepes/NaOH pH 7.25, 0.5% CHAPS and with 100 mM Tris-HCl pH 8.3, 150 mM NaCl, 2 mM EDTA, 0.1% w/v SDS, 0.5% w/v Nonidet P40, 0.5% w/v sodiumdeoxycholate. Proteins were eluted from beads by heating with reducing SDS-PAGE sample buffer.
# as §1
SMILES,formation of covalent caveolin dimers upon UV irradiation (caveolin-1),Protein synthesis (COS7 cells [1]),effect on protein biosynthesis (COS7 cells [1]),beta-galactosidase activity [2],Cell viability (COS7 cells [3]),Cell viability (COS7 cells [4]; 10 min UV),Cell viability (COS7 cells [4]; 10 min UV + 1 h chase),Cell viability (COS7 cells [4]; 30 min UV),Cell viability (COS7 cells [4]; 30 min UV + 1 h chase),"competition of cross-linking by Met, Val, Leu and Ile (HA-tagged human PGRMC1)",Cell viability (COS7 cells [5]; 1 min UV),Cell viability (COS7 cells [5]; 1 min UV + 1 h chase),Cell viability (COS7 cells [5]; 3 min UV),Cell viability (COS7 cells [5]; 3 min UV + 1 h chase),Cell viability (COS7 cells [5]; no UV + 1 h chase at 37 degree Celsius in PBS),"Cell viability (COS7 cells [5]; no UV, percent ± SD of viable cells)"
"CC(C(N)C(=O)O)C1(C)N=N1 (stereo not drawn) [photo-Ile, 2R,S-Amino-3-R,S-methyl-4,4′-azi-pentanoic acid]",very little cross-linking,62.8 ± 2.8,no significant effect,93 ± 9%,99.6 ± 0.3%,,,,,,,,,,,
"CC1(CC(N)C(=O)O)N=N1 [photo-Leu, L-2-amino-4,4′-azi-pentanoic acid]",significant formation of a cross-linked dimer,61.5 ± 1.7,no significant effect,68 ± 9%,99.8 ± 0.2%,99.5 ± 0.3%,91.5 ± 4.0%,98.8 ± 0.4%,17.9 ± 3.2%,competed mainly by Leu,99.5 ± 0.2%,95.5 ± 3.0%,99.6 ± 0.2%,95.3 ± 1.8%,99.3 ± 0.5%,99.5 ± 0.3%
